Series [1] is described as follows: Concentrations of the trace elements in the fermentation residue with different complexing agents. The class given is physicochemical. The text has this:
In Table 1 the trace element solution according to the invention contains the complexing agent in a stoichiometric amount of 60% EDTA and 60% of a phosphoric acid mixture relative to the overall amount of trace elements, which is composed of identical molar amounts of pyrophosphoric acid (H4P2O7), polyphosphoric acid (H6P4O13), metaphosphoric acid (H4P4O12), hypophosphoric Acid (H3PO2) and phosphorus acid (phosphonic acid) (H3PO3).

Experiment in series [2]: as above
The class given is physicochemical. This is another data set of the same source.

For series [3] the following is noted: cited from earlier work.
For series [4] the following is noted: cited from earlier work. The source holds these as a separate data set.
The conditions of series [5]: cited from earlier work. The source holds these as a separate data set.
For series [6] the following is noted: cited from earlier work. The source holds these as a separate data set.
Setting [7] is: 100 × times metal versus Simple, 50% NTA.
The mark [8] stands for this setting: column after 50% NTA and citrate (500%), not the invention.

The text below walks through data of patent publication US20120021476A1, “Trace Element Solution For Biogas Methods” (AGRAFERM TECHNOLOGIES AG, priority 2007, published 2012).

The structures appear in SMILES notation. Read-outs that look alike come from different tables or passages of the source. Residues, ends and D or L forms follow the SMILES beside them.

`[Al]` [Al]: the “Bio-availability (Invention)” value in series [1] (60% EDTA 60% phosphoric acids) stood at 100%. In addition, the Difference in series [2] (setting [7]) was 9931.3%. In series [2] (setting [8]), the Bio-availability is 100%.
With `N[C@@H](CS)C(=O)O` [C3H7O2NS, Cysteine], the “complexing of Co^2+ in words” value in series [3] was “extremely well”. Also, the “complexing of Ni^2+ in words” value in series [4] is listed as “extremely well”.
For the molecule `C[C@@H](O)[C@H](N)C(=O)O` [C4H9O3N, Threonine], the “complexing of Co^2+ in words” value in series [3] is “good”. Moreover, the “complexing of Cu^2+ in words” value in series [5] is “very well”. Besides, the “complexing of Zn^2+ in words” value in series [6] is “good”.
Consider `O=C(O)c1cc(=O)[nH]c(=O)[nH]1` [C5H4O4N2, Orotic acid], for which the “complexing of Co^2+ in words” value in series [3] is given as “able to complex”. For the same molecule, the “complexing of Ni^2+ in words” value in series [4] is given as “able to complex”. For the same molecule, in series [5], the “complexing of Cu^2+ in words” value is given as “able to complex”.
`N[C@@H](CCC(=O)O)C(=O)O` [C5H9O4N, Glutamic acid]: in series [4], the “complexing of Ni^2+ in words” value is “very well”. For the same molecule, the “complexing of Cu^2+ in words” value in series [5] is “very well”. Also, the “complexing of Zn^2+ in words” value in series [6] is “not so well”.
In the case of `CC(C)[C@H](N)C(=O)O` [C5H11O2N, valine], the “complexing of Ni^2+ in words” value in series [4] is “very well”. Also, in series [5], the “complexing of Cu^2+ in words” value was “very well”. The “complexing of Zn^2+ in words” value in series [6] is listed as “very well”.
`N[C@@H](CSSC[C@H](N)C(=O)O)C(=O)O` [C6H12O4N2S2, cystine]: the “complexing of Ni^2+ in words” value in series [4] is listed as “very well”. For the same molecule, the “complexing of Cu^2+ in words” value in series [5] is “excellent”. Further, the “complexing of Zn^2+ in words” value in series [6] is “very well”.
For the molecule `NCCCC[C@H](N)C(=O)O` [C6H14O2N2, lysine], the “complexing of Ni^2+ in words” value in series [4] is recorded as “very good”. Besides, the “complexing of Cu^2+ in words” value in series [5] is reported as “very good”. The “complexing of Zn^2+ in words” value in series [6] is listed as “well”.
Consider `N[C@@H](Cc1ccccc1)C(=O)O` [C9H11O2N, phenylalanine], for which the “complexing of Cu^2+ in words” value in series [5] is on record as “very good”. Besides, the “complexing of Zn^2+ in words” value in series [6] was “very good”.
Regarding `[Ca+2]` [Ca, calcium], the “Bio-availability (Invention)” value in series [1] is on record as 100%. The Difference in series [2] (setting [7]) was 38.2%. In addition, the Bio-availability in series [2] (setting [8]) is reported as 100%.
For the molecule `[Co]` [Co, cobalt], the “Bio-availability (Invention)” value in series [1] was determined as 100%. In addition, the bio-availability in words entry in series [2] (50% NTA) is listed as “hardly bio-available at all”. Moreover, the Difference in series [2] (setting [7]) is −100.0%. This molecule also came in with a Bio-availability in series [2] (setting [8]) of 0%.
As for `[Cu]` [Cu, copper], in series [1] (60% EDTA 60% phosphoric acids), the “Bio-availability (Invention)” value was determined as 0%. In addition, the Difference in series [2] (setting [7]) is given as −100.0%. The molecule further gave a Bio-availability in series [2] (setting [8]) of 0%.
In the case of `[Fe]` [Fe, iron], the “Bio-availability (Invention)” value in series [1] (60% EDTA 60% phosphoric acids) came to 100%. Further, the Difference in series [2] (setting [7]) is given as 4260.1%. This molecule yielded a Bio-availability in series [2] (setting [8]) of 100%.
In the case of `O=C(O)CC(S)C(=O)O` (centres unmarked) [HOOCCH2CH(SH)COOH, Mercaptomalic acid], the “complexing of Ni^2+ in words” value in series [4] is “well”. For the same molecule, the “complexing of Zn^2+ in words” value in series [6] was “well”.
As to `CC(C)[C@H](N)C(=O)N[C@H](C(=O)O)C(C)C` [L-valyl-L-valine] (H-Val-Val-OH), the “complexing of Ni^2+ in words” value in series [4] is given as “very good”.
With `[Mg+2]` [Mg, magnesium], the “Bio-availability (Invention)” value in series [1] (60% EDTA 60% phosphoric acids) came out at 100%. In series [2] (setting [7]), the Difference was found to be 9698.1%. In series [2] (setting [8]), this molecule had a Bio-availability of 100%.
On to `[Mn+2]` [Mn, manganese], for which the “Bio-availability (Invention)” value in series [1] is recorded as 100%. Also, in series [2], the Bio-availability was found to be 31% and the Difference was −99.2%.
For `[Ni]` [Ni, nickel], the “Bio-availability (Invention)” value in series [1] amounted to 100%. Besides, in series [2], the Bio-availability is reported as 0%, the Difference was −100.0%, the “available share of the added volume” value turned out to be 2 ppm and the bio-availability in words entry is listed as “hardly bio-available at all”.
Turning to `[Zn]` [Zn, zinc], in series [1], the “Bio-availability (Invention)” value came to 100%. Further, the bio-availability in words result in series [2] (50% NTA) was “hardly bio-available at all”. In addition, the Difference in series [2] (setting [7]) is −100.0%. For the same molecule, in series [2] (setting [8]), the Bio-availability was determined as 0%.
